In paper PMC8296573, “Synthesis and Biological Evaluation of Fingolimod Derivatives as Antibacterial Agents” (ACS Omega, 2021):
Values after ≈ are worked out from the molar mass of the structure shown. Like-named read-outs stand apart in the source and are kept apart here.

What was measured:
S. aureus ATCC 25923 [1] = assay: Antibacterial activity, pre-exposure (planktonic cells and biofilm formation); assay type: cell-based, Staphylococcus aureus; conditions: for MIC / inhibition at 5 µM / inhibition at 10 µM / inhibition at 15 µM / inhibition at 25 µM: Staphylococcus aureus, ATCC25923; for inhibition at 5 µM / inhibition at 10 µM / inhibition at 15 µM / inhibition at 25 µM / Average inhibition %, biofilms viability / Average inhibition %, planktonic cells viability: pre-exposure, ± SD
Method in brief: (§1)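 Compounds in DMSO were plated before bacteria were added (pre-exposure) and incubated 18 h aerobically at 37 °C with shaking. Planktonic cells were read by OD and resazurin fluorescence (20 μM final; ex 560/em 590 nm). Biofilms were read by resazurin, then crystal violet (A595) for total biomass.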

S. aureus ATCC 25923 [2] = assay: Antibacterial activity, post-exposure on preformed 18-h-old biofilms; assay type: cell-based, Staphylococcus aureus; conditions: ± SD; for inhibition at 25 µM / inhibition at 50 µM / inhibition at 100 µM / inhibition at 200 µM: Staphylococcus aureus; for inhibition at 25 µM: ATCC25923, 25 µM; for inhibition at 50 µM: ATCC25923, 50 µM; for inhibition at 100 µM: ATCC25923, 100 µM; for inhibition at 200 µM: ATCC25923, 200 µM
Method in brief: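 Biofilms grown 18 h without compound, medium then replaced and compound added for a further 24 h. Planktonic OD and resazurin (20 μM final) fluorescence (ex 560/em 590 nm) read; washed biofilms stained with 20 μM resazurin 30 min at 37 °C, then ethanol-fixed and crystal violet-stained, absorbance 595 nm.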

S. aureus ATCC 12598 = assay: Antibacterial activity, pre-exposure; assay type: cell-based, Staphylococcus aureus; conditions: for Average inhibition %, biofilms viability / Average inhibition %, planktonic cells viability / inhibition at 5 µM / inhibition at 10 µM / inhibition at 15 µM / inhibition at 25 µM: S. aureus ATCC 12598, pre-exposure, ± SD
Method in brief: as §1

A. baumannii NCTC 13423 = assay: Antibacterial activity, pre-exposure; assay type: cell-based, Acinetobacter baumannii; conditions: for Average inhibition %, biofilms viability / Average inhibition %, planktonic cells viability / inhibition at 10 µM / inhibition at 15 µM / inhibition at 25 µM / inhibition at 50 µM: A. baumannii NCTC 13423, pre-exposure, ± SD; for inhibition at 10 µM / inhibition at 15 µM / inhibition at 25 µM / inhibition at 50 µM / MIC: Acinetobacter baumannii, NCTC13423
Method in brief: as §1

P. aeruginosa ATCC 9027 = assay: Antibacterial activity, pre-exposure; assay type: cell-based, Pseudomonas aeruginosa; conditions: for Average inhibition %, biofilms viability / Average inhibition %, planktonic cells viability / inhibition at 50 µM / inhibition at 100 µM / inhibition at 150 µM / inhibition at 200 µM: P. aeruginosa ATCC 9027, pre-exposure, ± SD; for inhibition at 50 µM / inhibition at 100 µM / inhibition at 150 µM / inhibition at 200 µM: Pseudomonas aeruginosa, ATCC9027
Method in brief: as §1

[3] = 10 µM, read-out: Average inhibition %, biofilms biomass
[4] = 10 µM, read-out: Average inhibition %, planktonic cells turbidity
[5] = 15 µM, read-out: Average inhibition %, biofilms biomass
[6] = 15 µM, read-out: Average inhibition %, planktonic cells turbidity
[7] = 25 µM, read-out: Average inhibition %, biofilms biomass
[8] = 25 µM, read-out: Average inhibition %, planktonic cells turbidity
[9] = read-out: Average inhibition %, biofilms biomass
[10] = read-out: Average inhibition %, planktonic cells turbidity
[11] = 50 µM, read-out: Average inhibition %, biofilms biomass
[12] = 50 µM, read-out: Average inhibition %, planktonic cells turbidity

MIC (S. aureus ATCC 25923 [1]; lowest concentration with no visible growth (>90% inhibition of turbidity and viability of planktonic cells), 18 h, read-out: MIC S. aureus ATCC 25923): 10 µM (≈ 3.59 µg/mL)
MIC (S. aureus ATCC 25923 [1]; read-out: MIC (S. aureus)): 10 µM (≈ 3.59 µg/mL)
MIC (S. aureus ATCC 12598; Staphylococcus aureus, ATCC12598, pre-exposure, 18 h, read-out: MIC S. aureus ATCC 12598): 10 µM (≈ 3.59 µg/mL)
MIC (A. baumannii NCTC 13423; pre-exposure, Inactive = no activity up to 50 μM, > = some inhibition but no MIC reached, read-out: MIC A. baumannii NCTC 13423): 15 to 25 µM (≈ 5.38 to 8.96 µg/mL)
MIC (A. baumannii NCTC 13423; supplementary molecular formula strings sheet, read-out: MIC (A. baumannii)): 15 to 25 µM (≈ 5.38 to 8.96 µg/mL)
MIC P. aeruginosa ATCC 9027 (P. aeruginosa ATCC 9027; pre-exposure, Inactive = no activity up to 200 μM, > = some inhibition but no MIC reached): Inactive
Compound: CCCCCCCCc1ccc2nc(CCC(N)(CO)CO)ccc2c1 [Compound 80, 2-Amino-2-[2-(6-octylquinolin-2-yl)ethyl]propane-1,3-diol]
inhibition at 5 µM (S. aureus ATCC 25923 [1]; 5 µM, read-out: Average inhibition %, biofilms biomass): 24.2 ± 6.6%
inhibition at 5 µM (S. aureus ATCC 25923 [1]; 5 µM, read-out: Average inhibition %, planktonic cells turbidity): 43 ± 17%
inhibition at 10 µM (S. aureus ATCC 25923 [1]; [3]): 97.6 ± 1%
inhibition at 10 µM (S. aureus ATCC 25923 [1]; [4]): 99 ± 0.7%
inhibition at 15 µM (S. aureus ATCC 25923 [1]; [5]): 97.3 ± 0.6%
inhibition at 15 µM (S. aureus ATCC 25923 [1]; [6]): 99.5 ± 0.3%
inhibition at 25 µM (S. aureus ATCC 25923 [1]; [7]): 92.3 ± 1.5%
inhibition at 25 µM (S. aureus ATCC 25923 [1]; [8]): 99.1 ± 0.3%
Average inhibition %, biofilms viability (S. aureus ATCC 25923 [1]; 5 µM): 26.7 ± 15.1%
Average inhibition %, planktonic cells viability (S. aureus ATCC 25923 [1]; 5 µM): 13.9 ± 22.4%
Average inhibition %, biofilms viability (S. aureus ATCC 25923 [1]; 10 µM): 99.2 ± 1.4%
Average inhibition %, planktonic cells viability (S. aureus ATCC 25923 [1]; 10 µM): 99.4 ± 0%
Average inhibition %, biofilms viability (S. aureus ATCC 25923 [1]; 15 µM): 99.5 ± 0.5%
Average inhibition %, planktonic cells viability (S. aureus ATCC 25923 [1]; 15 µM): 99.5 ± 0%
Average inhibition %, biofilms viability (S. aureus ATCC 25923 [1]; 25 µM): 99.4 ± 0.3%
Average inhibition %, planktonic cells viability (S. aureus ATCC 25923 [1]; 25 µM): 99.7 ± 0%
Average inhibition %, biofilms viability (S. aureus ATCC 25923 [2]; 25 µM): 13.8 ± 11.7%
Average inhibition %, planktonic cells viability (S. aureus ATCC 25923 [2]; 25 µM): 17.5 ± 26.7%
Average inhibition %, biofilms viability (S. aureus ATCC 25923 [2]; 50 µM): 29.8 ± 10.2%
Average inhibition %, planktonic cells viability (S. aureus ATCC 25923 [2]; 50 µM): 21.5 ± 33.1%
Average inhibition %, biofilms viability (S. aureus ATCC 25923 [2]; 100 µM): 48.6 ± 5.2%
Average inhibition %, planktonic cells viability (S. aureus ATCC 25923 [2]; 100 µM): 81 ± 8%
Average inhibition %, biofilms viability (S. aureus ATCC 25923 [2]; 200 µM): 48.4 ± 12%
Average inhibition %, planktonic cells viability (S. aureus ATCC 25923 [2]; 200 µM): 93.2 ± 1.3%
inhibition at 25 µM (S. aureus ATCC 25923 [2]; [9]): 25.1 ± 16.4%
inhibition at 25 µM (S. aureus ATCC 25923 [2]; [10]): 31.7 ± 26.5%
inhibition at 50 µM (S. aureus ATCC 25923 [2]; [9]): 50.2 ± 3.2%
inhibition at 50 µM (S. aureus ATCC 25923 [2]; [10]): 26 ± 39.1%
inhibition at 100 µM (S. aureus ATCC 25923 [2]; [9]): 61.9 ± 7.7%
inhibition at 100 µM (S. aureus ATCC 25923 [2]; [10]): 64.3 ± 18.5%
inhibition at 200 µM (S. aureus ATCC 25923 [2]; [9]): 51.5 ± 9.6%
inhibition at 200 µM (S. aureus ATCC 25923 [2]; [10]): 73.4 ± 9.8%
Average inhibition %, biofilms viability (S. aureus ATCC 12598; 5 µM): 24.6 ± 6.8%
Average inhibition %, planktonic cells viability (S. aureus ATCC 12598; 5 µM): 7.3 ± 12.6%
Average inhibition %, biofilms viability (S. aureus ATCC 12598; 10 µM): 99.2 ± 0.3%
Average inhibition %, planktonic cells viability (S. aureus ATCC 12598; 10 µM): 99.7 ± 0%
Average inhibition %, biofilms viability (S. aureus ATCC 12598; 15 µM): 99.5 ± 0.1%
Average inhibition %, planktonic cells viability (S. aureus ATCC 12598; 15 µM): 99.6 ± 0%
Average inhibition %, biofilms viability (S. aureus ATCC 12598; 25 µM): 99.5 ± 0.2%
Average inhibition %, planktonic cells viability (S. aureus ATCC 12598; 25 µM): 99.6 ± 0%
inhibition at 5 µM (S. aureus ATCC 12598; Staphylococcus aureus, ATCC12598, 5 µM, read-out: Average inhibition %, biofilms biomass): 34.3 ± 18.8%
inhibition at 5 µM (S. aureus ATCC 12598; Staphylococcus aureus, ATCC12598, 5 µM, read-out: Average inhibition %, planktonic cells turbidity): 22.7 ± 5.4%
inhibition at 10 µM (S. aureus ATCC 12598; Staphylococcus aureus, ATCC12598, 10 µM, read-out: Average inhibition %, biofilms biomass): 96.5 ± 1%
inhibition at 10 µM (S. aureus ATCC 12598; Staphylococcus aureus, ATCC12598, 10 µM, read-out: Average inhibition %, planktonic cells turbidity): 99.6%
inhibition at 15 µM (S. aureus ATCC 12598; Staphylococcus aureus, ATCC12598, 15 µM, read-out: Average inhibition %, biofilms biomass): 93.4 ± 1.2%
inhibition at 15 µM (S. aureus ATCC 12598; Staphylococcus aureus, ATCC12598, 15 µM, read-out: Average inhibition %, planktonic cells turbidity): 99.5 ± 0.1%
inhibition at 25 µM (S. aureus ATCC 12598; Staphylococcus aureus, ATCC12598, 25 µM, read-out: Average inhibition %, biofilms biomass): 89.4 ± 0.6%
inhibition at 25 µM (S. aureus ATCC 12598; Staphylococcus aureus, ATCC12598, 25 µM, read-out: Average inhibition %, planktonic cells turbidity): 98.9 ± 0.3%
Average inhibition %, biofilms viability (A. baumannii NCTC 13423; 10 µM): 0 ± 0%
Average inhibition %, planktonic cells viability (A. baumannii NCTC 13423; 10 µM): 7.2 ± 5.2%
Average inhibition %, biofilms viability (A. baumannii NCTC 13423; 15 µM): 71.9 ± 26.2%
Average inhibition %, planktonic cells viability (A. baumannii NCTC 13423; 15 µM): 98.9 ± 0.3%
Average inhibition %, biofilms viability (A. baumannii NCTC 13423; 25 µM): 101.6 ± 1.6%
Average inhibition %, planktonic cells viability (A. baumannii NCTC 13423; 25 µM): 99.6 ± 0.1%
Average inhibition %, biofilms viability (A. baumannii NCTC 13423; 50 µM): 101.8 ± 1.3%
Average inhibition %, planktonic cells viability (A. baumannii NCTC 13423; 50 µM): 99.5 ± 0.2%
inhibition at 10 µM (A. baumannii NCTC 13423; [3]): 1.6 ± 2.8%
inhibition at 10 µM (A. baumannii NCTC 13423; [4]): 0.8 ± 1.5%
inhibition at 15 µM (A. baumannii NCTC 13423; [5]): 53 ± 33.4%
inhibition at 15 µM (A. baumannii NCTC 13423; [6]): 96.4 ± 3%
inhibition at 25 µM (A. baumannii NCTC 13423; [7]): 84.3 ± 5.9%
inhibition at 25 µM (A. baumannii NCTC 13423; [8]): 99 ± 0.9%
inhibition at 50 µM (A. baumannii NCTC 13423; [11]): 74.7 ± 11.4%
inhibition at 50 µM (A. baumannii NCTC 13423; [12]): 98.8 ± 0.9%
Average inhibition %, biofilms viability (P. aeruginosa ATCC 9027; 50 µM): 9.8 ± 12.2%
Average inhibition %, planktonic cells viability (P. aeruginosa ATCC 9027; 50 µM): 39.9 ± 11%
Average inhibition %, biofilms viability (P. aeruginosa ATCC 9027; 100 µM): 10.5 ± 10%
Average inhibition %, planktonic cells viability (P. aeruginosa ATCC 9027; 100 µM): 46.1 ± 11.6%
Average inhibition %, biofilms viability (P. aeruginosa ATCC 9027; 150 µM): 14.3 ± 12.2%
Average inhibition %, planktonic cells viability (P. aeruginosa ATCC 9027; 150 µM): 22.9 ± 1.7%
Average inhibition %, biofilms viability (P. aeruginosa ATCC 9027; 200 µM): 15.3 ± 15.9%
Average inhibition %, planktonic cells viability (P. aeruginosa ATCC 9027; 200 µM): 33.1 ± 16.1%
inhibition at 50 µM (P. aeruginosa ATCC 9027; [11]): 5.2 ± 5.2%
inhibition at 50 µM (P. aeruginosa ATCC 9027; [12]): 48 ± 11.1%
inhibition at 100 µM (P. aeruginosa ATCC 9027; 100 µM, read-out: Average inhibition %, biofilms biomass): 0%
inhibition at 100 µM (P. aeruginosa ATCC 9027; 100 µM, read-out: Average inhibition %, planktonic cells turbidity): 55.5 ± 5.2%
inhibition at 150 µM (P. aeruginosa ATCC 9027; 150 µM, read-out: Average inhibition %, biofilms biomass): 12.1 ± 10.7%
inhibition at 150 µM (P. aeruginosa ATCC 9027; 150 µM, read-out: Average inhibition %, planktonic cells turbidity): 42.1 ± 13.6%
inhibition at 200 µM (P. aeruginosa ATCC 9027; 200 µM, read-out: Average inhibition %, biofilms biomass): 12.3 ± 19.1%
inhibition at 200 µM (P. aeruginosa ATCC 9027; 200 µM, read-out: Average inhibition %, planktonic cells turbidity): 55.3 ± 0.9%
